Patent EP0365837B1 (DANA FARBER CANCER INSTITUTE, priority 1988, dated 1990)
Values joined by “and” are separate entries in the source; they are usually repeats but may differ in a detail not shown here. Identical values can stand only once. Like-named read-outs stand apart in the source and are kept apart here. *1 amine or outer side, *2 acyl side, *3 side chain or, on linkers, in order; H or OH if unused. Where a SMILES comes first, the peptide text is derived from it. Bridges are numbered along the chain shown (N, C = ends). Roman numbers before positions name the chains, in order. [ ]: non-standard residue; d: D form. Actinocin(9to1) = Cc1c2oc3c(C)ccc(C(=O)[*:1])c3nc-2c(C(=O)[*:2])c(N)c1=O; NMeV = CN[C@H](C(=O)O)C(C)C; Sar = CNCC(=O)O

Experiments:
[1] = test system: Peripheral blood mononuclear cells (PBMC); conditions: Table 19, R x S; R6-5-D6 8 ng/ml, Azathioprine 1 ng/ml; no inhibitor 49,570
[2] = test system: Peripheral blood mononuclear cells (PBMC); assay: cells; conditions: Homo sapiens
[3] = test system: JY cells; assay: LFA-1 dependent aggregation of JY cells (qualitative and quantitative aggregation assays); format: cell-based; conditions: 50 ng/ml of PMA; quantitative assay, 200 rpm, 2 hours; SD = 8%, N = 6
Protocol: In order to assess the extent of cellular adhesion, aggregation assays were employed. Cell lines used in such assays were washed two times with RPMI 1640 medium containing 5 mM Hepes buffer (Sigma Chemical Co., St. Louis) and resuspended to a concentration of 2 x 10⁶ cells/ml. Added to flat-bottomed, 96-well microtiter plates (No. 3596; Costar, Cambridge, MA) were 50 »l of appropriate monoclonal antibody supernatant or 50 »l of complete medium with or without purified monoclonal antibodies, 50 »l of complete medium containing 200 ng/ml of the phorbol ester phorbol myristate acetate (PMA) and 100 »l of cells at a concentration of 2 x 10⁶ cells/ml in complete medium. This yielded a final concentration of 50 ng/ml PMA and 2 x 10⁵ cells/well. Cells were allowed to settle spontaneously, and the degree of aggregation was scored at various time points. […] In order to obtain a more quantitative estimate of cellular adhesion, reagents and cells were added to 5 ml polystyrene tubes in the same order as above. Tubes were placed in a rack on a gyratory shaker at 37°C. […] Percent aggregation was determined by the following equation: [formula] […]
As a second means of measuring adhesion, the quantitative assay described in Example 2 was used. […]

[4] = test system: human dermal fibroblasts; format: cell-based
Protocol: The kinetics of interleukin 1 and gamma interferon effects on ICAM-1 expression on dermal fibroblasts were determined using the ¹²⁵I goat anti-mouse IgG binding assay of Dustin, M.L. et al. (J. Immunol. 137:245-254 (1986); which reference is herein incorporated by reference). To perform this binding assay, human dermal fibroblasts were grown in a 96-well microtiter plate to a density of 2-8 x 10⁴ cells/well (0.32 cm²). The cells were washed twice with RPMI 1640 medium supplemented as described in Example 1. The cells were additionally washed once with Hanks Balanced Salt Solution (HBSS), 10 mM HEPES, 0.05% NaN₃ and 10% heat-inactivated fetal bovine serum. Washing with this binding buffer was done at 4°C. To each well was added 50 »l of the above-described binding buffer and 50 »l of the appropriate hybridoma supernatant with X63 and W6/32 as the negative and positive controls, respectively. After incubation for 30 minutes at 4°C, with gentle agitation, the wells were washed twice with binding buffer, and the second antibody ¹²⁵I-goat anti-mouse IgG, was added at 50 nCi in 100 »l. The ¹²⁵I-goat anti-mouse antibody was prepared by using Iodogen (Pierce) according to the method of Fraker, P.J. et al. (Biochem. Biophys. Res. Commun. 80:849 (1978)). After 30 minutes at 4°C, the wells were washed twice with 200 »l of binding buffer and the cell layer was solubilized by adding 100 »l of 0.1 N NaOH. This and a 100 »l wash were counted in a Beckman 5500 gamma counter. The specific counts per minute bound was calculated as [cpm with monoclonal antibody]-[cpm with X63]. All steps, including induction with specific reagents, were carried out in quadruplicate.

[5] = molecular target: ICAM-1-LFA-1 adhesion (Homo sapiens, UniProt P05107+P20701); conditions: Marlin, S.D., et al., cell 51:813-819 (1987); cited from earlier work
[6] = test system: human umbilical vein endothelial cells (HUVEC); assay: Radioimmune assay of ICAM-1 expression (¹²⁵I RR1/1 binding) on HUVEC; format: cell-based
Protocol: In order to measure ICAM-1 expression, a radioimmune assay was developed. In this assay, purified RR1/1 was iodinated using iodogen to a specific activity of 10 »Ci/»g. Endothelial cells were grown in 96 well plates and treated as described for each experiment. The plates were cooled at 4°C by placing in a cold room for 0.5-1 hr, not immediately on ice. The monolayers were washed 3x with cold complete media and then incubated 30 m at 4°C with ¹²⁵I RR1/1. The monolayers were then washed 3x with complete media. The bound ¹²⁵I was released using 0.1 N NaOH and counted. The specific activity of the ¹²⁵I RR1/1 was adjusted using unlabeled RR1/1 to obtain a linear signal over the range of antigen densities encountered in this study. Non-specific binding was determined in the presence of a thousand fold excess of unlabeled RR1/1 and was subtracted from total binding to yield the specific binding.

[7] = IFN-γ (10 U/ml) (18 hr), alone or + cycloheximide 20 »g/ml, actinomycin D 10 »M, mean ± SD
[8] = IL 1 (10 U/ml) (4 hr), alone or + cycloheximide 20 »g/ml, actinomycin D 10 »M, tunicamycin 2 »g/ml, mean ± SD
[9] = no cytokine, Control (4 hr) 1524 ± 140, cycloheximide 20 »g/ml, actinomycin D 10 »M, tunicamycin 2 »g/ml, mean ± SD
[10] = no cytokine, Control (4 hr) 11928 ± 600, cycloheximide 20 »g/ml, actinomycin D 10 »M, tunicamycin 2 »g/ml, mean ± SD

Sequence of ICAM-1-LFA-1 adhesion (P20701 26-1170): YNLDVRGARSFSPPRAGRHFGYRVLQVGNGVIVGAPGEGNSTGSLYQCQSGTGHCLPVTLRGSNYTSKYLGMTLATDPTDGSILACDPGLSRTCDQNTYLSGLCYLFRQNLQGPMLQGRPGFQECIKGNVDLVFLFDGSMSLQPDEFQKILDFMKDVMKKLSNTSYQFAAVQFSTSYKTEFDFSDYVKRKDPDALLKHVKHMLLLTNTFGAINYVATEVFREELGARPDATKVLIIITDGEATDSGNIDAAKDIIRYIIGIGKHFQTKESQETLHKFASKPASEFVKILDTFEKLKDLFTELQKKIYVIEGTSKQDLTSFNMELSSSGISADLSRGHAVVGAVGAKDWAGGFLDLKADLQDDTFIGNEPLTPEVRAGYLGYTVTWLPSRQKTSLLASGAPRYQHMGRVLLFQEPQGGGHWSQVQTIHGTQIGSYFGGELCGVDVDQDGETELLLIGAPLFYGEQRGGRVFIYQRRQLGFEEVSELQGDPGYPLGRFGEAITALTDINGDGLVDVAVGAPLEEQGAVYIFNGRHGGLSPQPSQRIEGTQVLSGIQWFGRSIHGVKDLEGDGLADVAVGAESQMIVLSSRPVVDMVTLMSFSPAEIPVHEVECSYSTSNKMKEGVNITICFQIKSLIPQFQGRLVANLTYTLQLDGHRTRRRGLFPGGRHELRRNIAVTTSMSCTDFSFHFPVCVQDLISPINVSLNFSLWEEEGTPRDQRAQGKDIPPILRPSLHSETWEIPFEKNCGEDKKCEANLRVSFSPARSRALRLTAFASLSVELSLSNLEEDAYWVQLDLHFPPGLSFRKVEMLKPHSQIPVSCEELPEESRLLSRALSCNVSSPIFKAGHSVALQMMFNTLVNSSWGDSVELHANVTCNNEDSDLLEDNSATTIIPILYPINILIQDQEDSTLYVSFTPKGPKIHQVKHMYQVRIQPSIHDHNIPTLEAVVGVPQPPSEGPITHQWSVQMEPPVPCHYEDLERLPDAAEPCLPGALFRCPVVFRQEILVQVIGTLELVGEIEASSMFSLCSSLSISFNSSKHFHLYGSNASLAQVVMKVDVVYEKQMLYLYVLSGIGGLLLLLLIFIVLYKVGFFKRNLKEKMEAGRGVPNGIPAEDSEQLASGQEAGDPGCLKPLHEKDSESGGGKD
Sequence of ICAM-1-LFA-1 adhesion (P05107 23-769): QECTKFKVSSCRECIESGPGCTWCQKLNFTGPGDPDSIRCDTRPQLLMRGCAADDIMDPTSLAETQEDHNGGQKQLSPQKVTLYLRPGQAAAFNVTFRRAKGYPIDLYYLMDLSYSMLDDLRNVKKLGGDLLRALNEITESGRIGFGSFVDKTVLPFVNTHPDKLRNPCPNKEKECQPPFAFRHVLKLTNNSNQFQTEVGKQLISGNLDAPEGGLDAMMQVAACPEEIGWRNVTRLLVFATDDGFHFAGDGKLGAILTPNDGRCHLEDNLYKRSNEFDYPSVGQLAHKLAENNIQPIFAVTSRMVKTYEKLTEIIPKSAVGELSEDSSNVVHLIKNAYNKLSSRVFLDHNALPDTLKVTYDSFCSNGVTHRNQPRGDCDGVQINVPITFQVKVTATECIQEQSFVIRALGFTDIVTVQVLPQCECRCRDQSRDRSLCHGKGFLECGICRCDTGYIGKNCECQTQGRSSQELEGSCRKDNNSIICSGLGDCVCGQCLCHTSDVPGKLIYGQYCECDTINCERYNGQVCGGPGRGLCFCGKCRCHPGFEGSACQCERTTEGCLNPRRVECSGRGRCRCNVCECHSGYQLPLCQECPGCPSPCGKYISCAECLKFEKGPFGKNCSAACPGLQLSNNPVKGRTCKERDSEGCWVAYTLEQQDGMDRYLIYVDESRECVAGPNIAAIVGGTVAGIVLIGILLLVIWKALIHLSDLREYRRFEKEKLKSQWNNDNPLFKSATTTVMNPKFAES

Compound: Cn1cnc([N+](=O)[O-])c1Sc1ncnc2nc[nH]c12 [Azathioprine]
- ³HT Incorporation (CPM) [1]: 42,710 CPM
- inhibition at 0.001 µg/mL [2]: 14%

Compound: CCCCCCCCCCCCCC(=O)O[C@@H]1[C@@H](C)[C@@]2(O)[C@@H](C=C(CO)C[C@]3(O)C(=O)C(C)=C[C@@H]23)[C@@H]2C(C)(C)[C@]12OC(C)=O [PMA, phorbol myristate acetate]
- JY cells in aggregates [3]: 87%

Compound: Cc1c2oc3c(C)ccc(C(=O)N[C@@H]4C(=O)N[C@H](C(C)C)C(=O)N5CCC[C@H]5C(=O)N(C)CC(=O)N(C)[C@@H](C(C)C)C(=O)O[C@@H]4C)c3nc-2c(C(=O)N[C@@H]2C(=O)N[C@H](C(C)C)C(=O)N3CCC[C@H]3C(=O)N(C)CC(=O)N(C)[C@@H](C(C)C)C(=O)O[C@@H]2C)c(N)c1=O [actinomycin D] (I: T[dV]P[Sar][NMeV] / II: T[dV]P[Sar][NMeV]; ester I:1-I:C, II:1-II:C; linker I:N-II:N via Actinocin(9to1))
- ¹²⁵I Goat Anti-Mouse IgG Specifically Bound (cpm) anti-HLA-A,B,C [4, 7]: 12089 ± 550 cpm
- ¹²⁵I Goat Anti-Mouse IgG Specifically Bound (cpm) anti-ICAM-1 [4, 7]: 1326 ± 186 cpm
- ¹²⁵I Goat Anti-Mouse IgG Specifically Bound (cpm) anti-HLA-A,B,C [4, 8]: 12294 ± 123 cpm
- ¹²⁵I Goat Anti-Mouse IgG Specifically Bound (cpm) anti-ICAM-1 [4, 8]: 1613 ± 88 cpm
- effects of both interleukin 1 and gamma interferon on ICAM-1 expression on fibroblasts ([4]; cycloheximide 20 »g/ml, actinomycin D 10 »M): abolish
- ¹²⁵I Goat Anti-Mouse IgG Specifically Bound (cpm) anti-ICAM-1 [4, 9]: 1590 ± 46 cpm
- ¹²⁵I Goat Anti-Mouse IgG Specifically Bound (cpm) anti-HLA-A,B,C [4, 10]: 12276 ± 608 cpm

Compound: C[C@@H]1C[C@@H]([C@H](O)CC2CC(=O)NC(=O)C2)C(=O)[C@@H](C)C1 [cycloheximide]
- ¹²⁵I Goat Anti-Mouse IgG Specifically Bound (cpm) anti-HLA-A,B,C [4]: 10675 ± 800 cpm and 10678 ± 471 cpm and 12676 ± 446 cpm
- ¹²⁵I Goat Anti-Mouse IgG Specifically Bound (cpm) anti-ICAM-1 [4]: 1461 ± 59 cpm and 1513 ± 210 cpm and 1619 ± 381 cpm

Compound: GRGDSP
- inhibit ICAM-1-LFA-1 adhesion [5]: failure

Compound: GRGESP
- inhibit ICAM-1-LFA-1 adhesion [5]: failure

Compound: polymyxin B
- ¹²⁵I Specifically bound (CPM) ([6]; HUVEC, 16 hr, 100 ng/ml rIL-1 beta, 50 ng/ml rIL-1 alpha, 50 ng/ml rTNF alpha, 10 »g/ml LPS, 10 ng/ml rIFN gamma, polymyxin B 10 »g/ml, control 603 ± 11): 480 ± 23 CPM
- decreased ICAM-1 expression (basal) ([6]; polymyxin B at 10 »g/ml, cells in low endotoxin serum, additional decrease): 25%

Compound: tunicamycin
- ¹²⁵I Goat Anti-Mouse IgG Specifically Bound (cpm) anti-HLA-A,B,C [4, 8]: 13434 ± 661 cpm
- ¹²⁵I Goat Anti-Mouse IgG Specifically Bound (cpm) anti-ICAM-1 [4, 8]: 3084 ± 113 cpm
- inhibited the interleukin 1 effect on ICAM-1 expression ([4]; fibroblasts, tunicamycin 2 »g/ml): 43%
- ¹²⁵I Goat Anti-Mouse IgG Specifically Bound (cpm) anti-ICAM-1 [4, 9]: 1461 ± 176 cpm
- ¹²⁵I Goat Anti-Mouse IgG Specifically Bound (cpm) anti-HLA-A,B,C [4, 10]: 12340 ± 940 cpm
